# Reference: PMC5218480 (PLoS ONE, 2017)
# Test system: MV-4-11 cells
# Assay: Gene expression microarray analysis (Affymetrix PrimeView) and GSEA
# Assay type: cell-based, human
# Set-up: RFU PODN (11730768_x_at) / Fold change /veh PODN (11730768_x_at) / RFU LINC00158 (11744669_a_at) / Fold change /veh LINC00158 (11744669_a_at) / RFU DUSP10 (11751237_a_at) / Fold change /veh DUSP10 (11751237_a_at) / RFU ID3 (11757404_x_at) / Fold change /veh ID3 (11757404_x_at) / RFU PLEKHG5 (11737974_s_at) / Fold change /veh PLEKHG5 (11737974_s_at) / RFU LRRC4B (11730491_at) / Fold change /veh LRRC4B (11730491_at) / RFU GIMAP4 (11747438_a_at) / Fold change /veh GIMAP4 (11747438_a_at) / RFU KRT8 (11758183_x_at) / Fold change /veh KRT8 (11758183_x_at) / RFU CNN1 (11734310_a_at) / Fold change /veh CNN1 (11734310_a_at) / RFU VPS37D (11726825_at) / Fold change /veh VPS37D (11726825_at) / RFU C10orf10 (11716522_x_at) / Fold change /veh C10orf10 (11716522_x_at) / RFU KIR2DL2 /// KIR2DL4 /// KIR2DL5A /// KIR2DL5B /// KIR2DS1 /// KIR2DS2 /// KIR2DS3 /// KIR2DS4 /// KIR3DL3 /// KIR3DL3 /// KIR3DS1 (11738374_at) / Fold change /veh KIR2DL2 /// KIR2DL4 /// KIR2DL5A /// KIR2DL5B /// KIR2DS1 /// KIR2DS2 /// KIR2DS3 /// KIR2DS4 /// KIR3DL3 /// KIR3DL3 /// KIR3DS1 (11738374_at) / RFU C1QL1 (11718748_at) / Fold change /veh C1QL1 (11718748_at) / RFU TMPRSS4 (11747572_a_at) / Fold change /veh TMPRSS4 (11747572_a_at) / RFU HAMP (11756126_x_at) / Fold change /veh HAMP (11756126_x_at) / RFU RNFT2 (11725882_a_at) / Fold change /veh RNFT2 (11725882_a_at) / RFU NR4A2 (11747474_a_at) / Fold change /veh NR4A2 (11747474_a_at) / RFU ABCC12 (11746883_a_at) / Fold change /veh ABCC12 (11746883_a_at) / RFU TMEM136 (11760407_x_at) / Fold change /veh TMEM136 (11760407_x_at) / RFU CLDN22 /// WWC2 (11732394_at) / Fold change /veh CLDN22 /// WWC2 (11732394_at) / RFU HLA-DPB1 (11760878_x_at) / Fold change /veh HLA-DPB1 (11760878_x_at) / RFU SPINT1 (11716480_a_at) / Fold change /veh SPINT1 (11716480_a_at) / RFU GAP43 (11754022_s_at) / Fold change /veh GAP43 (11754022_s_at) / RFU A4GNT (11735810_at) / Fold change /veh A4GNT (11735810_at) / RFU PRB3 (11715151_x_at) / Fold change /veh PRB3 (11715151_x_at) / RFU TUBB4B (11761932_at) / Fold change /veh TUBB4B (11761932_at) / RFU CAPN14 (11732068_a_at) / Fold change /veh CAPN14 (11732068_a_at) / RFU TMCC2 (11721928_a_at) / Fold change /veh TMCC2 (11721928_a_at) / RFU IRGQ (11745062_a_at) / Fold change /veh IRGQ (11745062_a_at) / RFU FAM174B (11720279_a_at) / Fold change /veh FAM174B (11720279_a_at) / RFU TMPRSS4 (11748680_a_at) / Fold change /veh TMPRSS4 (11748680_a_at) / RFU FAM212B (11763350_a_at) / Fold change /veh FAM212B (11763350_a_at) / RFU PLEKHG5 (11743358_a_at) / Fold change /veh PLEKHG5 (11743358_a_at) / RFU ZSCAN30 (11745921_a_at) / Fold change /veh ZSCAN30 (11745921_a_at) / RFU CMKLR1 (11741424_a_at) / Fold change /veh CMKLR1 (11741424_a_at) / RFU LOC101060620 /// MAPK8IP1 (11723275_at) / Fold change /veh LOC101060620 /// MAPK8IP1 (11723275_at) / RFU SPTSSB (11747773_x_at) / Fold change /veh SPTSSB (11747773_x_at) / RFU PRSS12 (11739890_at) / Fold change /veh PRSS12 (11739890_at) / RFU BIN1 (11741810_x_at) / Fold change /veh BIN1 (11741810_x_at) / RFU WNT11 (11732464_a_at) / Fold change /veh WNT11 (11732464_a_at) / RFU C10orf10 (11716521_a_at) / Fold change /veh C10orf10 (11716521_a_at) / RFU C5orf56 (11738089_at) / Fold change /veh C5orf56 (11738089_at) / RFU CYB561 (11721691_x_at) / Fold change /veh CYB561 (11721691_x_at) / RFU ANKRD19P (11752326_a_at) / Fold change /veh ANKRD19P (11752326_a_at) / RFU OR2T12 /// OR2T33 /// OR2T8 (11738714_s_at) / Fold change /veh OR2T12 /// OR2T33 /// OR2T8 (11738714_s_at) / RFU VCAN (11748164_a_at) / Fold change /veh VCAN (11748164_a_at) / RFU JSRP1 (11732532_at) / Fold change /veh JSRP1 (11732532_at) / RFU KRTAP10-11 (11738290_x_at) / Fold change /veh KRTAP10-11 (11738290_x_at) / RFU MYO3A (11730013_a_at) / Fold change /veh MYO3A (11730013_a_at) / RFU EBF3 (11725865_a_at) / Fold change /veh EBF3 (11725865_a_at) / RFU CAMK2N1 (11719241_x_at) / Fold change /veh CAMK2N1 (11719241_x_at) / RFU C5orf56 (11738088_a_at) / Fold change /veh C5orf56 (11738088_a_at) / RFU OLFML3 (11715873_a_at) / Fold change /veh OLFML3 (11715873_a_at) / RFU LOC100653217 /// NTM (11731650_a_at) / Fold change /veh LOC100653217 /// NTM (11731650_a_at) / RFU MAPK11 (11762145_a_at) / Fold change /veh MAPK11 (11762145_a_at) / RFU FIZ1 (11724087_x_at) / Fold change /veh FIZ1 (11724087_x_at) / RFU OASL (11726364_x_at) / Fold change /veh OASL (11726364_x_at) / RFU SOX15 (11748057_x_at) / Fold change /veh SOX15 (11748057_x_at) / RFU CD79A (11719716_a_at) / Fold change /veh CD79A (11719716_a_at) / RFU HIST1H1D (11736915_at) / Fold change /veh HIST1H1D (11736915_at) / RFU CASKIN2 (11723855_a_at) / Fold change /veh CASKIN2 (11723855_a_at) / RFU LOC730098 (11760151_x_at) / Fold change /veh LOC730098 (11760151_x_at) / RFU OR4N2 (11742367_at) / Fold change /veh OR4N2 (11742367_at) / RFU PRRT2 (11749266_a_at) / Fold change /veh PRRT2 (11749266_a_at) / RFU SNX32 (11753110_a_at) / Fold change /veh SNX32 (11753110_a_at) / RFU CDHR5 (11726645_a_at) / Fold change /veh CDHR5 (11726645_a_at) / RFU RCAN1 (11760418_a_at) / Fold change /veh RCAN1 (11760418_a_at) / RFU FAM167A (11723789_a_at) / Fold change /veh FAM167A (11723789_a_at) / RFU FAM26E (11764081_at) / Fold change /veh FAM26E (11764081_at) / RFU ISYNA1 (11749810_s_at) / Fold change /veh ISYNA1 (11749810_s_at) / RFU ACY1 (11761880_at) / Fold change /veh ACY1 (11761880_at) / RFU 11764098_at / Fold change /veh 11764098_at / RFU SAMD14 (11745864_x_at) / Fold change /veh SAMD14 (11745864_x_at) / RFU NPB (11741838_a_at) / Fold change /veh NPB (11741838_a_at) / RFU TMPRSS6 (11731388_a_at) / Fold change /veh TMPRSS6 (11731388_a_at) / RFU KRTAP10-2 (11738614_at) / Fold change /veh KRTAP10-2 (11738614_at) / RFU ARHGAP8 /// PRR5-ARHGAP8 (11727945_x_at) / Fold change /veh ARHGAP8 /// PRR5-ARHGAP8 (11727945_x_at) / RFU KRTAP5-7 /// NADSYN1 (11734609_at) / Fold change /veh KRTAP5-7 /// NADSYN1 (11734609_at) / RFU RASL12 (11751679_a_at) / Fold change /veh RASL12 (11751679_a_at) / RFU CDKN2B (11736163_a_at) / Fold change /veh CDKN2B (11736163_a_at) / RFU PRF1 (11729649_at) / Fold change /veh PRF1 (11729649_at) / RFU, ZNF638 /// ZNF638-IT1 / Fold change vs veh, ZNF638 /// ZNF638-IT1 / RFU, PANK3 / Fold change vs veh, PANK3 / RFU, SH3YL1 / Fold change vs veh, SH3YL1 / RFU, ZEB2 / Fold change vs veh, ZEB2 / RFU, NRIP1 / Fold change vs veh, NRIP1 / RFU, PTTG1IP / Fold change vs veh, PTTG1IP / RFU, CAPN2 / Fold change vs veh, CAPN2 / RFU, MED14 / Fold change vs veh, MED14 / RFU, SNORA58 / Fold change vs veh, SNORA58 / RFU, C1orf63 / Fold change vs veh, C1orf63 / RFU, LRRFIP1 / Fold change vs veh, LRRFIP1 / RFU, NDUFAF7 / Fold change vs veh, NDUFAF7 / RFU, SLC12A2 / Fold change vs veh, SLC12A2 / RFU, IBTK / Fold change vs veh, IBTK / RFU, ESF1 / Fold change vs veh, ESF1 / Fold change vs veh, TMEM50B / RFU, TAOK1 / Fold change vs veh, TAOK1 / RFU, ACBD3 / Fold change vs veh, ACBD3 / RFU, TMA16 / Fold change vs veh, TMA16 / RFU, RWDD3 / Fold change vs veh, RWDD3 / RFU, BCAT1 / Fold change vs veh, BCAT1 / RFU, EDEM3 / Fold change vs veh, EDEM3 / RFU, TMEM33 / Fold change vs veh, TMEM33 / RFU, WDR75 / Fold change vs veh, WDR75 / RFU, AHCTF1 / Fold change vs veh, AHCTF1 / RFU, TFRC / Fold change vs veh, TFRC / RFU, ZDHHC17 / Fold change vs veh, ZDHHC17 / RFU, NOM1 / Fold change vs veh, NOM1 / RFU, ARL8B / Fold change vs veh, ARL8B / RFU, ZBTB11 / Fold change vs veh, ZBTB11 / RFU, TAMM41 / Fold change vs veh, TAMM41 / RFU, KIAA1704 /// LOC100996395 / Fold change vs veh, KIAA1704 /// LOC100996395 / RFU, ING1 / Fold change vs veh, ING1 / RFU, TRMT61B / Fold change vs veh, TRMT61B / RFU, FUBP3 / Fold change vs veh, FUBP3 / RFU, TP53 / Fold change vs veh, TP53 / RFU, TNKS2 / Fold change vs veh, TNKS2 / RFU, ZFP14 / Fold change vs veh, ZFP14 / RFU, ACTR2 / Fold change vs veh, ACTR2 / RFU, PPP3R1 / Fold change vs veh, PPP3R1 / RFU, PIK3R1 / Fold change vs veh, PIK3R1 / RFU, HNRNPA1 / Fold change vs veh, HNRNPA1 / RFU, RNF170 / Fold change vs veh, RNF170 / RFU, ZNF28 / Fold change vs veh, ZNF28 / RFU, RNGTT / Fold change vs veh, RNGTT / RFU, OGT / Fold change vs veh, OGT / RFU, BRD1 / Fold change vs veh, BRD1 / RFU, MARS / Fold change vs veh, MARS / RFU, ZNF655 / Fold change vs veh, ZNF655 / RFU, FAHD1 / Fold change vs veh, FAHD1 / RFU, BDP1 / Fold change vs veh, BDP1 / RFU, LRRCC1 / Fold change vs veh, LRRCC1 / RFU, ARID1A / Fold change vs veh, ARID1A / RFU, ZNF146 / Fold change vs veh, ZNF146 / RFU, ZNF330 / Fold change vs veh, ZNF330 / RFU, GPN3 / Fold change vs veh, GPN3 / RFU, C9orf123 / Fold change vs veh, C9orf123 / RFU, N4BP2L2 / Fold change vs veh, N4BP2L2 / RFU, ARFIP1 / Fold change vs veh, ARFIP1 / RFU, FAM179B / Fold change vs veh, FAM179B / RFU, BCL10 / Fold change vs veh, BCL10 / RFU, UHRF1BP1L / Fold change vs veh, UHRF1BP1L / RFU, BET1 / Fold change vs veh, BET1 / RFU, CNOT2 / Fold change vs veh, CNOT2 / RFU, ZNF268 / Fold change vs veh, ZNF268 / Fold change vs veh, ZNF507 / RFU, DGCR2 / Fold change vs veh, DGCR2 / RFU, WDSUB1 / Fold change vs veh, WDSUB1 / Fold change vs veh, HSP90B1 /// MIR3652 / RFU, ADSS / Fold change vs veh, ADSS / RFU, GK / Fold change vs veh, GK / RFU, ZNF148 / Fold change vs veh, ZNF148 / RFU, TAF9 / Fold change vs veh, TAF9 / RFU, SLC1A5 / Fold change vs veh, SLC1A5 / RFU, SLMO2 / Fold change vs veh, SLMO2 / RFU, ABCC4 / Fold change vs veh, ABCC4 / RFU, LOC101060439 /// RAP1B / Fold change vs veh, LOC101060439 /// RAP1B / RFU, RFX7 / Fold change vs veh, RFX7 / RFU, GTPBP10 / Fold change vs veh, GTPBP10 / RFU, CNEP1R1 / Fold change vs veh, CNEP1R1 / RFU, BIVM-ERCC5 /// ERCC5 / Fold change vs veh, BIVM-ERCC5 /// ERCC5 / RFU, ILF3 / Fold change vs veh, ILF3 / RFU 11762660_at / Fold change /veh 11762660_at / RFU VCAN (11757783_s_at) / Fold change /veh VCAN (11757783_s_at) / RFU DDX43 (11728927_at) / Fold change /veh DDX43 (11728927_at) / RFU KRT8 (11758188_x_at) / Fold change /veh KRT8 (11758188_x_at) / RFU NKD1 (11759106_at) / Fold change /veh NKD1 (11759106_at) / RFU SRD5A1 (11742802_a_at) / Fold change /veh SRD5A1 (11742802_a_at) / RFU TPSAB1 /// TPSB2 (11721975_s_at) / Fold change /veh TPSAB1 /// TPSB2 (11721975_s_at) / RFU GSTM3 (11746129_a_at) / Fold change /veh GSTM3 (11746129_a_at) / RFU IL23R (11737362_x_at) / Fold change /veh IL23R (11737362_x_at) / RFU TMEM51 (11727254_a_at) / Fold change /veh TMEM51 (11727254_a_at) / RFU PIWIL2 (11732686_x_at) / Fold change /veh PIWIL2 (11732686_x_at) / RFU ORM1 (11744905_x_at) / Fold change /veh ORM1 (11744905_x_at) / RFU CCDC152 (11743942_at) / Fold change /veh CCDC152 (11743942_at) / RFU ECM1 (11717891_a_at) / Fold change /veh ECM1 (11717891_a_at) / RFU IL23R (11748794_a_at) / Fold change /veh IL23R (11748794_a_at) / RFU TNFAIP8L3 (11732012_x_at) / Fold change /veh TNFAIP8L3 (11732012_x_at) / RFU MBOAT4 (11741988_at) / Fold change /veh MBOAT4 (11741988_at) / RFU 11764193_at / Fold change /veh 11764193_at / RFU TMEM53 (11763286_at) / Fold change /veh TMEM53 (11763286_at) / RFU MAGEB2 (11727129_at) / Fold change /veh MAGEB2 (11727129_at) / RFU TMEM200A (11744735_a_at) / Fold change /veh TMEM200A (11744735_a_at) / RFU CCDC152 (11751479_a_at) / Fold change /veh CCDC152 (11751479_a_at) / RFU FAM211A (11726209_a_at) / Fold change /veh FAM211A (11726209_a_at) / RFU RGS16 (11746705_a_at) / Fold change /veh RGS16 (11746705_a_at) / RFU VCAN (11755009_s_at) / Fold change /veh VCAN (11755009_s_at) / RFU RHOB (11743442_s_at) / Fold change /veh RHOB (11743442_s_at) / RFU RGS16 (11720943_a_at) / Fold change /veh RGS16 (11720943_a_at) / RFU RGS16 (11720944_at) / Fold change /veh RGS16 (11720944_at) / RFU, VPS4B / Fold change vs veh, VPS4B / RFU, CREB1 / Fold change vs veh, CREB1 / RFU, DNAJC13 / Fold change vs veh, DNAJC13 / RFU, GNAQ / Fold change vs veh, GNAQ / RFU, CDK5R1 / Fold change vs veh, CDK5R1 / RFU, ZRANB3 / Fold change vs veh, ZRANB3 / RFU, CUL4A / Fold change vs veh, CUL4A / RFU, CCNY / Fold change vs veh, CCNY / RFU, UFL1 / Fold change vs veh, UFL1 / RFU, COG3 / Fold change vs veh, COG3 / RFU, DIAPH2 / Fold change vs veh, DIAPH2 / RFU, SKA2 / Fold change vs veh, SKA2 / RFU, AFF3 / Fold change vs veh, AFF3 / RFU, LMF1 / Fold change vs veh, LMF1 / RFU, IPO11 / Fold change vs veh, IPO11 / RFU, DFFB / Fold change vs veh, DFFB / RFU, FOXP1 / Fold change vs veh, FOXP1 / RFU, CARD8 / Fold change vs veh, CARD8 / RFU, STRN3 / Fold change vs veh, STRN3 / RFU, ADK / Fold change vs veh, ADK / RFU, RASSF2 / Fold change vs veh, RASSF2 / RFU, WIPF1 / Fold change vs veh, WIPF1 / RFU, LARP1B / Fold change vs veh, LARP1B / RFU, RASA1 / Fold change vs veh, RASA1 / RFU, RB1 / Fold change vs veh, RB1 / RFU, PPFIA1 / Fold change vs veh, PPFIA1 / RFU, MAT2A / Fold change vs veh, MAT2A / RFU, CCT5 / Fold change vs veh, CCT5 / RFU, WDR92 / Fold change vs veh, WDR92 / RFU, CUX1 / Fold change vs veh, CUX1 / RFU, TTC7A / Fold change vs veh, TTC7A / RFU, TMEM135 / Fold change vs veh, TMEM135 / RFU, DEPTOR / Fold change vs veh, DEPTOR / RFU, CPM / Fold change vs veh, CPM / RFU, DNAJB6 / Fold change vs veh, DNAJB6 / RFU, CACNA2D3 / Fold change vs veh, CACNA2D3 / RFU, DTX4 / Fold change vs veh, DTX4 / RFU, TFCP2 / Fold change vs veh, TFCP2 / RFU, GMCL1 /// GMCL1P1 / Fold change vs veh, GMCL1 /// GMCL1P1 / RFU, AEBP2 / Fold change vs veh, AEBP2 / RFU, SNHG1 /// SNORD22 /// SNORD25 /// SNORD26 /// SNORD27 /// SNORD28 /// SNORD29 /// SNORD31 / Fold change vs veh, SNHG1 /// SNORD22 /// SNORD25 /// SNORD26 /// SNORD27 /// SNORD28 /// SNORD29 /// SNORD31 / Fold change (Aza/veh), C12orf56 (ProbeSet 11735607_a_at) / Fold change (ACY-1035/veh), C12orf56 (ProbeSet 11735607_a_at) / Fold change (Aza/veh), FGFR1OP (ProbeSet 11751329_s_at) / Fold change (ACY-1035/veh), FGFR1OP (ProbeSet 11751329_s_at) / Fold change (Aza/veh), VPS36 (ProbeSet 11739960_a_at) / Fold change (ACY-1035/veh), VPS36 (ProbeSet 11739960_a_at) / RFU SYPL1 (11715823_x_at) / Fold change /veh SYPL1 (11715823_x_at) / RFU IGFBP7 (11715501_s_at) / Fold change /veh IGFBP7 (11715501_s_at) / RFU REEP3 (11722064_at) / Fold change /veh REEP3 (11722064_at) / RFU IGLL1 (11728026_x_at) / Fold change /veh IGLL1 (11728026_x_at): dose or concentration left out as unconfirmed
# Conditions: ProbeSet 11741123_x_at; LIST D
smiles,measurement,value
Nc1ccc(-c2cccs2)cc1NC(=O)c1ccc2c(c1)cc(C1CC1)n2CCN1CCOCC1 [ACY-1035],"Fold change vs veh, ADK",0.96
